Measured values published in patent US20260207614A1, “IRAK4 DEGRADERS AND USES THEREOF” (Kymera Therapeutics, Inc., priority 2022, published 2026).
“Also recorded” adds a separate entry of the source. Where two headings read alike, the source gives them in different places.

Key:
[1] = system: TLR agonist (lipopolysaccharide and R848) and IL-1β-induced proinflammatory cytokine production; assay: In vitro cytokine release assays in PBMCs; format: cell-based; details: LPS
P-glycoprotein (P-gp) = P-glycoprotein (P-gp) (Homo sapiens, UniProt P08183); assay: P-gp substrate assessment in vitro; format: in vitro ADME
Chain of P-glycoprotein (P-gp) (P08183 whole entry): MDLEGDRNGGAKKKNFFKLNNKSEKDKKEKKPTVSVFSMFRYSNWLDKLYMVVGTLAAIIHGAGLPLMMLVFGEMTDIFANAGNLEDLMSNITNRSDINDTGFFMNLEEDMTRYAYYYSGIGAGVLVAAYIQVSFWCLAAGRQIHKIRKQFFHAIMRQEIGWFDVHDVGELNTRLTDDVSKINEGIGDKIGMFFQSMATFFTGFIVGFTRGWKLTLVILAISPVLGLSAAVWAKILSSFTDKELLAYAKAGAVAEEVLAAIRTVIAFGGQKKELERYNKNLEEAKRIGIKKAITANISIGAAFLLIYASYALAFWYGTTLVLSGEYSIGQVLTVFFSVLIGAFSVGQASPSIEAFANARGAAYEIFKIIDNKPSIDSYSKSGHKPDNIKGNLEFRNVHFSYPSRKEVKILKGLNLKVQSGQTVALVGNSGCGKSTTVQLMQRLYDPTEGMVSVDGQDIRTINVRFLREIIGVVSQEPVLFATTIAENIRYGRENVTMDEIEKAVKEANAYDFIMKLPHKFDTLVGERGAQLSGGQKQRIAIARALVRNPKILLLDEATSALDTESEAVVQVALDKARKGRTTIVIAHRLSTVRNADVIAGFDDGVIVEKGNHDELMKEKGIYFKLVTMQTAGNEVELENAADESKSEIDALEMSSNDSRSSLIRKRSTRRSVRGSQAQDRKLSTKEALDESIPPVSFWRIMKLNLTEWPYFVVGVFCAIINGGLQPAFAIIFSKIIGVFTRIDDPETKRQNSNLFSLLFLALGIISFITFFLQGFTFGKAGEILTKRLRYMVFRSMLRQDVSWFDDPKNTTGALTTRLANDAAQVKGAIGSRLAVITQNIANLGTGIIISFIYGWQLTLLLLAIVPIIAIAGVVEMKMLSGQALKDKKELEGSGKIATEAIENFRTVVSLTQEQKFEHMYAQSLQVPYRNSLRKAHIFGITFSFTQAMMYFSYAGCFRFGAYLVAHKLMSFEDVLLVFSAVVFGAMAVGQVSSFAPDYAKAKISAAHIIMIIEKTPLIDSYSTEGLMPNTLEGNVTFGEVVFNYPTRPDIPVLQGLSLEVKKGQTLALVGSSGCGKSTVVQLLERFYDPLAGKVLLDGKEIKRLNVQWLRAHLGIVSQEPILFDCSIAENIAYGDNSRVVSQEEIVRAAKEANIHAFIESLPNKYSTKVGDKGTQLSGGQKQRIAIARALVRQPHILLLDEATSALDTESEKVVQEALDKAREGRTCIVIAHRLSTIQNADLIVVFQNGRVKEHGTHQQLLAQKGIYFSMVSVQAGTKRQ
Text: (§1) In in vivo pharmacokinetic (PK) studies conducted in rats, dogs, and monkeys.
Metabolites generated in liver microsomes from humans were also detected in those from rat, dog, and monkey. In the in vitro drug-drug interaction studies.

[2] = Phase 1 Part C Compound A skin concentration; format: in vivo, human; details: FIG. 20, Day 28
[3] = system: disease-relevant cytokines ex vivo; assay: Phase 1 Part C ex vivo cytokine stimulation assays; format: in vivo, human
Text: Plots show median of the maximum change from baseline between Days 7-14 in MAD3 and Days 14-28 in Part C.
IL-36, IFN-g, IL-8, IL-5, GZMB and COX2 in HS and IL-5, IL-31, NLRP3, CXCL1 and IL-2RB in AD (FIG. 25A-B).

[4] = Phase 1 MAD plasma PK in healthy volunteers; format: in vivo, human; details: for Ctrough / AUC: Day 14, geometric mean (% CV); for AUC: read-out: AUC24; for Tmax: Day 14, median (range); for Cmax: Day 14 steady state, geometric mean (% CV)
Description: The selection of Compound A doses will be guided by the safety, tolerability, and PK data in humans from the SAD portion of the study. […] Increasing dose levels in subsequent MAD cohorts will be identified based on the safety and PK observed in the previous SAD and MAD cohorts. Dose escalation between each MAD cohort will not exceed 100%.
However, the dosing interval and the duration of dosing may change following review of the safety, PK, and PD data from Part A.
A MAD5 cohort was added including five twice-weekly doses of 200 mg.
Geometric Mean (% CV) reported for all parameters, except tmax where median (range) are presented. Accumulation Ratio represents fold change in exposure from Day 1 to Day 14.

[5] = system: imiquimod psoriasis model (TLR 7/8-dependent); assay: Imiquimod psoriasis model; format: in vivo, murine
Text: Overall, efficacy was associated with achieving at least 80% or more IRAK4 knockdown in associated tissues in the model systems.

[6] = Distribution studies in rats; format: in vivo
Text: as §1

IRAK4 [7] = target: T1, IRAK4 (Canis lupus familiaris, UniProt A0A8I3S726); assay: In vitro IRAK4 degradation, dog PBMCs; format: cell-based; details: read-out: DC50 (IRAK4 degradation)
T1 construct: endogenous in cells; host or cells: dog PBMCs
T1 sequence (A0A8I3S726 1-460): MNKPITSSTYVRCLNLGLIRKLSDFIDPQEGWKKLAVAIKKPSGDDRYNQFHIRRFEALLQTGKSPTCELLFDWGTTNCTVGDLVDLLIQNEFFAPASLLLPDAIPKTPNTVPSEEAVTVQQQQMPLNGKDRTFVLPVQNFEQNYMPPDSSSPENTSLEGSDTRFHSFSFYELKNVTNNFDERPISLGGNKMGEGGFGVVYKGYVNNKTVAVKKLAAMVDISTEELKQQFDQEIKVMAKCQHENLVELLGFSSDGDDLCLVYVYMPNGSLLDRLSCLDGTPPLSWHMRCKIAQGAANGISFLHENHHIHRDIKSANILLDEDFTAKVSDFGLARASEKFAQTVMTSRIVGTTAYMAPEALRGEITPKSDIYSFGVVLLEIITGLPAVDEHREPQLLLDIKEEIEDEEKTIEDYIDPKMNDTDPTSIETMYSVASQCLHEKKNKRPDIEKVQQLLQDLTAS

IRAK4 [8] = target: T2, IRAK4 (Rattus norvegicus, UniProt A0A8I6G1H3); assay: In vitro IRAK4 degradation, rat splenocytes; format: cell-based; details: read-out: DC50 (IRAK4 degradation)
T2 construct: endogenous in cells; host or cells: rat splenocytes
T2 sequence (A0A8I6G1H3 1-461): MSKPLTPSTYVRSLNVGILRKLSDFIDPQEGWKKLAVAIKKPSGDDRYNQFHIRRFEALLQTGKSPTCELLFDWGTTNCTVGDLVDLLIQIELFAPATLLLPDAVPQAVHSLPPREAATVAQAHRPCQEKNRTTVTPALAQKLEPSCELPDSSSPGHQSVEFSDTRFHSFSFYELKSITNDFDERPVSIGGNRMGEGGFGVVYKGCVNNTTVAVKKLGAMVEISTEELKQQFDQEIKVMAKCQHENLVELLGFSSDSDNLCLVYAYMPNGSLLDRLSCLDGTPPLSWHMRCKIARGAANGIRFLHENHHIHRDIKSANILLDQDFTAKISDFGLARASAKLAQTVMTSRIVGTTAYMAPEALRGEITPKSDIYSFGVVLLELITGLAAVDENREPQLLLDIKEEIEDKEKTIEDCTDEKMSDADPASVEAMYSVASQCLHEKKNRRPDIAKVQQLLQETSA

[9] = system: proinflammatory gene transcripts; assay: Phase 1 Part C proinflammatory gene transcripts in skin lesions (RNAseq); format: in vivo, human; details: Day 28 compared to baseline
Phase 1 Part C safety = format: in vivo, human
[10] = Phase 1 Part C plasma PK in HS/AD patients; format: in vivo; details: human
Text: Part C: Part C is an open-label, multiple dose study in a single cohort of up to 20 patients with AD or HS (at least 10 patients with AD) and will commence after the completion of Part B. Part C will be conducted on both an inpatient and outpatient basis and patients will continue to be followed for safety through Day 28. The dose regimen and the requirement for patient confinement to the clinical units will be selected by the SRC from review of the safety. PK, and PD data after completion of Part B.

Phase 1 MAD safety = format: in vivo, human; details: multiple daily doses over 14 days up to 200 mg (MAD 4)
Text: Steady-state plasma levels were reached by Day 7, with approximately 3-fold increase in exposure on Day 14 compared to Day 1.

Cn1c(=O)n([C@@H]2CCC(=O)NC2=O)c2cccc(C#CCOC3CCN(C[C@H]4CC[C@H](n5cc(NC(=O)c6cnn7ccc(N8C[C@H]9C[C@@H]8CO9)nc67)c(C(F)F)n5)CC4)CC3)c21 [Compound A, 5-((1R,4R)-2-oxa-5-azabicyclo[2.2.1]heptan-5-yl)-N-(3-(difluoromethyl)-1-((1r,4R)-4-((4-((3-(1-(2,6-dioxopiperidin-3-yl)-3-methyl-2-oxo-2,3-dihydro-1H-benzo[d]imidazol-4-yl)prop-2-yn-1-yl)oxy)piperidin-1-yl)methyl)cyclohexyl)-1H-pyrazol-4-yl)pyrazolo[1,5-a]pyrimidine-3-carboxamide]
IC50 values, inhibition of proinflammatory cytokine production (IL-6, TNF-α, GM-CSF, IL-8) [1]: low nM range | substrate of P-glycoprotein (P-gp) (P-glycoprotein (P-gp)): substrate | skin concentration of Compound A in HS or AD patient compared to healthy volunteer [2]: about 2 fold | inhibition of disease-relevant cytokines ex vivo, maximum ([3]; AD patients): up to 98% | cytokine inhibition, IFN-γ ([3]; AD patients, FIG. 23): up to 95% | cytokine inhibition, IL-1β ([3]; AD patients, FIG. 23): up to 81% | cytokine inhibition, IL-6 ([3]; AD patients, FIG. 23): up to 74% | cytokine inhibition, IL-8 ([3]; AD patients, FIG. 23): up to 85% | cytokine inhibition, IL-10 ([3]; AD patients, FIG. 23): up to 98% | cytokine inhibition, IL-12 ([3]; AD patients, FIG. 23): up to 76% | cytokine inhibition, IL-17 ([3]; AD patients, FIG. 23): up to 83% | cytokine inhibition, IL-23 ([3]; AD patients, FIG. 23): up to 95% | cytokine inhibition, TNF-α ([3]; AD patients, FIG. 23): up to 74% | inhibition of disease-relevant cytokines ex vivo, maximum ([3]; HS patients): up to 84% | cytokine inhibition, IFN-γ ([3]; HS patients, FIG. 23): up to 76% | cytokine inhibition, IL-1β ([3]; HS patients, FIG. 23): up to 57% | cytokine inhibition, IL-6 ([3]; HS patients, FIG. 23): up to 50% | cytokine inhibition, IL-8 ([3]; HS patients, FIG. 23): up to 59% | cytokine inhibition, IL-10 ([3]; HS patients, FIG. 23): up to 52% | cytokine inhibition, IL-12 ([3]; HS patients, FIG. 23): up to 84% | cytokine inhibition, IL-17 ([3]; HS patients, FIG. 23): up to 46% | cytokine inhibition, TNF-α ([3]; HS patients, FIG. 23): up to 54% | inhibition of 9 disease-relevant cytokines ex vivo, maximum ([3]; HS/AD patients, median of maximum change from baseline Days 14-28): up to 98% | Ctrough ([4]; 25 mg QD): 5.03 (30.3) ng/mL | Ctrough ([4]; 50 mg QD): 7.28 (35.1) ng/mL | Ctrough ([4]; 100 mg QD): 9.81 (30.1) ng/mL | Ctrough ([4]; 200 mg QD): 18.8 (32.6) ng/mL | day of dosing by which steady-state plasma levels reached ([4]; MAD, once daily): ≤ 7 days | AUC ([4]; human, plasma, oral, 25 mg QD): 153 ng·h/mL | Tmax ([4]; human, plasma, oral, 25 mg QD): 8 h | Cmax ([4]; human, plasma, oral, 25 mg QD): 8.2 ng/mL | AUC ([4]; human, plasma, oral, 50 mg QD): 224 ng·h/mL | Tmax ([4]; human, plasma, oral, 50 mg QD): 8 h | Cmax ([4]; human, plasma, oral, 50 mg QD): 12 ng/mL | AUC ([4]; human, plasma, oral, 100 mg QD): 314 ng·h/mL | Tmax ([4]; human, plasma, oral, 100 mg QD): 8 h | Cmax ([4]; human, plasma, oral, 100 mg QD): 16.1 ng/mL | AUC ([4]; human, plasma, oral, 200 mg QD): 498 ng·h/mL | Tmax ([4]; human, plasma, oral, 200 mg QD): 8 h | Cmax ([4]; human, plasma, oral, 200 mg QD): 25.2 ng/mL | half-life ([4]; human, plasma, oral, healthy volunteers, read-out: half-life, range observed in MAD): 34 to 59 h | degradation of IRAK4 in the spleen and skin ([5]; mouse, in vivo): dose-dependent degradation | skin thickness ([5]; mouse, in vivo): reduction in skin thickness | IL-1β in the skin ([5]; p<0.0001): significant reduction | IL-6 in the skin ([5]; p<0.05, 300 mg/kg only): significant reduction | penetration into the central nervous system (CNS) [6]: limited penetration | tissue distribution [6]: extensively distributed into tissues | DC50 (IRAK4 [7]): < 10 nM | DC50 (IRAK4 [8]): < 10 nM | downregulation of proinflammatory gene transcripts in skin lesions (IL-5, IL-31, NLRP3, CXCL1, IL-2RB) ([9]; AD patients): > 25% | downregulation of proinflammatory gene transcripts in skin lesions (IL-1b, IL-17, IL-36, IFN-g, IL-8, IL-5, GZMB, COX2) ([9]; HS patients): > 25% | course of QTc prolongation with continued dosing (Phase 1 Part C safety): resolution to baseline by Day 28; also recorded: spontaneously resolved to baseline by Day 28 | serious adverse events (Phase 1 Part C safety): no serious adverse events | severity of adverse events (headache, fatigue, diarrhea) (Phase 1 Part C safety): predominantly mild | safety and tolerability (Phase 1 Part C safety; 75 mg QD fed, 28 days, HS/AD patients): generally safe and well-tolerated | QTcF prolongation (Phase 1 Part C safety; Days 7-14): modest, non-adverse QTcF prolongation | exposure in fasted state as share of exposure in fed state ([10]; in vivo): about 133% | exposure in fed state as share of exposure in fasted state ([10]; in vivo): about 75% | half-life ([10]; plasma, oral, Part C, 75 mg QD fed, HS/AD patients): 44 h | safety and tolerability (Phase 1 MAD safety): safe and well-tolerated
